Legend:
[1] = tested on: Green Peach Aphid (Myzus persicae, MYZUPE); test: Green Peach Aphid (GPA) foliar spray bioassay on cabbage seedlings; type: in vivo; conditions: for Mean LC50 PPM: cabbage seedlings, live aphids counted three days after treatment, Abbott-corrected % control; for % (percent increase in the Mean LC50 required compared to F1): relative to F1
Method: (§1) F1, CE1, CE2, CE3, and CE4 (2 mg each) were each dissolved in 2 mL of acetone/methanol (1:1) solvent, forming stock solutions of 1000 ppm for each test molecule. The stock solutions were diluted 5× with 0.025% Tween® 20 in water to obtain test solutions at 200 ppm for each test molecule. Subsequent 4× dilutions, in water containing 0.025% Tween® 20 and 10% acetone/methanol (1:1), were used to generate the desired concentrations for dose responses. A minimum of 5 concentrations of each test molecule were used for each assay.
Test solutions of Formula One and the Comparative Examples, prepared as described above, were tested against GPA using the following procedure.
Cabbage seedlings grown in 3-inch pots, with 2-3 small (3-5 cm) true leaves, were used as test substrate. The seedlings were infested with 20-50 GPA (wingless adult and nymph stages) one day prior to chemical application. Four pots with individual seedlings were used for each treatment. A hand—held aspirator—type sprayer was used for spraying a solution to both sides of […] leaves until runoff. Reference plants (solvent check) were sprayed with the diluent only (0.025% Tween® 20 and 10% acetone/methanol (1:1) in water). Treated plants were held in a holding room for three days at approximately 25° C. and ambient relative humidity (RH) prior to grading. Evaluation was conducted by counting the number of live aphids per plant under a microscope three days after treatment. Percent control was measured using Abbott's correction formula (W. S. Abbott, “A Method of Computing the Effectiveness of an Insecticide” J. Econ. Entomol. 18 (1925), pp.265-267) as follows:
(§2) Corrected % Control=100*(X−Y)/X
where X=No. of live aphids on solvent check plants and Y=No. of live aphids on treated plants. Bioassay 2: Sweetpotato Whitefly (Bemisia tabaci, BEMITA) (“SPW”).

[2] = tested on: Sweetpotato Whitefly (Bemisia tabaci, BEMITA); test: Sweetpotato Whitefly (SPW) foliar spray bioassay on cotton seedlings; type: in vivo; conditions: for Mean LC50 PPM: cotton seedlings sprayed at crawler emergence, 2-3 instar nymphs counted 7-9 days after treatment, Abbott-corrected % control; for % (percent increase in the Mean LC50 required compared to F1): relative to F1
Method: as §1
Test solutions of Formula One and the Comparative Examples, prepared as described above, were tested against SPW using the following procedure.
Cotton seedlings grown in 3-inch pots, pruned so that only one true leaf remained, were used as test substrate. Adult B. tabaci were allowed to colonize these plants and lay eggs for 24 hours after which all adults were removed from the plants using compressed air. Plants were monitored for egg development and, when crawler emergence was underway (>25% emergence based on visual examination using a microscope), the plants were sprayed using the test solutions and methods described above for green peach aphids (GPA). Treated plants were held in a holding room at approximately 25° C. and ambient relative humidity (RH) prior to grading. Evaluation was conducted by counting the number of developed 2-3 instar nymphs per plant under a microscope 7-9 days after treatment. Percent control was measured using Abbott's correction formula (W. S. Abbott, “A Method of Computing the Effectiveness of an Insecticide” J. Econ. Entomol. 18 (1925), pp.265-267) as follows:
as §2
where X=No. of live nymphs on solvent check plants and Y=No. of live nymphs on treated plants.

SMILES | Mean LC50 PPM [1] [PPM] | % (percent increase in the Mean LC50 required compared to F1) [1] [%] | Mean LC50 PPM [2] [PPM] | % (percent increase in the Mean LC50 required compared to F1) [2] [%]
CN(C(=O)CS(C)(=O)=O)c1cn(-c2cccnc2)nc1Cl [CE2, N-(3-chloro-1-(pyridin-3-yl)-1H-pyrazol-4-yl)-N-methyl-2-(methylsulfonyl)acetamide] | 0.52 | 643 | 21.01 | 331
CC(C)(C(=O)Nc1cn(-c2cccnc2)nc1Cl)S(C)(=O)=O [CE4, N-(3-chloro-1-(pyridin-3-yl)-1H-pyrazol-4-yl)-2-methyl-2-(methylsulfonyl)propanamide] | 2.17 | 3000 | 9.72 | 100
CC(C(=O)N(C)c1cn(-c2cccnc2)nc1Cl)S(C)(=O)=O (stereo not drawn) [CE1, N-(3-chloro-1-(pyridin-3-yl)-1H-pyrazol-4-yl)-N-methyl-2-(methylsulfonyl)propanamide] | 0.29 | 314 | 5.61 | 15
CC(C(=O)Nc1cn(-c2cccnc2)nc1Cl)S(C)(=O)=O (stereo not drawn) [Molecule F1, N-(3-chloro-1-(pyridin-3-yl)-1H-pyrazol-4-yl)-2-(methylsulfonyl)propanamide] | 0.07 | – | 4.87 | –
CS(=O)(=O)CC(=O)Nc1cn(-c2cccnc2)nc1Cl [CE3, N-(3-chloro-1-(pyridin-3-yl)-1H-pyrazol-4-yl)-2-(methylsulfonyl)acetamide] | 0.05 | −29 | 25.35 | 421

— US20230040279A1, “COMPOSITIONS HAVING PESTICIDAL UTILITY AND PROCESSES RELATED THERETO” (CORTEVA AGRISCIENCE LLC, priority 2019, published 2023)
